Here are results for 2 compounds from patent US9988381B2, “Five-member-heterocycle fused pyridine compounds, method of producing the same, and use thereof” (SHANGHAI INSTITUTE OF MATERIA MEDICA, CHINESE ACADEMY OF …, priority 2013, dated 2018).

Like-named read-outs stand apart in the source and are kept apart here.

The target of series [1] is T1, c-Met kinase domain recombinant protein (Homo sapiens, UniProt P08581).
T1 construct: 50 μL diluted solution of c-Met kinase domain recombinant protein in reaction buffer was added to initiate the reaction
T1 sequence (P08581 1078-1345 limits assumed): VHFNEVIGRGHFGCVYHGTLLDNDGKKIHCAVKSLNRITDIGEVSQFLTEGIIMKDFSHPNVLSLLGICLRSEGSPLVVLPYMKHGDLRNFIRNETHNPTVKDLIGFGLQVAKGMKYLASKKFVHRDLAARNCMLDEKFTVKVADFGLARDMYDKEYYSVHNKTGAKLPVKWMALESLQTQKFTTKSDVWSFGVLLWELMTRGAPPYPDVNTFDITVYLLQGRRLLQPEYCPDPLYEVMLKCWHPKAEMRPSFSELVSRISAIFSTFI
Description: biochemical. The note with it: read-out: Inhibition rate at 10 μM (%). The method in brief:
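Recombinant c-Met kinase domain phosphorylated immobilised Poly(Glu,Tyr)4:1 for 1 h at 37 °C in 50 mM HEPES pH 7.4, 50 mM MgCl2, 0.5 mM MnCl2, 0.2 mM Na3VO4, 1 mM DTT with ATP. Product measured by anti-phosphotyrosine PY99 ELISA (HRP, 490 nm), giving percent inhibition; ATP-free wells served as control.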

Series [2] has as its target T1, c-Met kinase domain recombinant protein. Description: biochemical. The note with it: for inhibition at 0.1 µM: read-out: Average inhibition rate at 0.1 μM (%); for inhibition at 1 µM: read-out: Average inhibition rate at 1 μM (%); for inhibition at 10 µM: read-out: Average inhibition rate at 10 μM (%). The method in brief:
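IC50 came from a four-parameter fit of inhibition rates measured by anti-phosphotyrosine (PY99/HRP) ELISA at 490 nm. The reaction ran 1 hour at 37° C with 5 μM ATP, c-Met kinase domain protein and Poly(Glu,Tyr)4:1-coated wells, in HEPES pH 7.4 buffer containing MgCl2, MnCl2, Na3VO4 and DTT.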

Series [3] has as its system human malignant glioblastoma cell U87MG xenograft. In words: Test V: human malignant glioblastoma U87MG xenograft in nude mice. Type of series: in vivo. As for the experimental part: U87-MG cells were expanded by in vitro culture, cells at log phase were harvested and resuspended in EMEM, adjusted to a cell density of 2.8×10^7/mL, then implanted subcutaneously in the right axilla of nude mice.
During the trial, tumor diameters and animal weights were measured twice a week. Tumor Volume (TV) was calculated by the following equation: TV=1/2×a×b^2, wherein a, b represent length and width, respectively. Based on the measurement, Relative Tumor Volume (RTV) was calculated by the following equation: RTV=Vt/V0, wherein V0 is the tumor volume measured when divided for administration (i.e., d0), Vt is the tumor volume measured at each timepoint.
In general terms: A xenograft is tissue or cells of one species grown in another, often human tumour cells in immunodeficient mice.

For series [4], the system named is BaF3/TPR-Met cell. In words: Test III: growth inhibition of engineered BaF3/TPR-Met cells (MTT). Type of series: cell-based. The note with it: Mus musculus, BaF3, 72 h. As for the experimental part: Assays on the growth inhibition of the compounds against engineered BaF3/TPR-Met cell (engineered cell line having TPR-Met fusion protein stably expressed in cytoplasm, persistently activated, Met dependent sensitive cell line; BaF3 cell was purchased from DSMZ, German) were detected using microculture tetrozolium (MTT) staining. A certain amount of BaF3/TPR-Met cells at log phase were inoculated into 96-well culture plate at 90 µL per well, incubated overnight and then 10 μL compound at various concentrations or vehicle control (normal saline) was added, each concentration was tested in triplicate. After incubation with compound for 72 hours, the incubation was terminated, MTT solution (5 mg/mL) was added at 20 μL per well, incubated at 37° C. for 4 hours, then 100 μL triplet solution (10% SDS−5% isobutanol−0.01M HCl) was added, incubated overnight at 37° C., OD value was measured at 570 nm. […] Experiments were conducted in duplicates.

In series [5] the test system is MKN45 cell. Description: Test III: growth inhibition of gastric tumor cell MKN45 (SRB). It is filed as cell-based. The note with it: Homo sapiens, 72 hours. On the procedure: Assays on the growth inhibition of the compounds against gastric tumor cell MKN45, non-small cell carcinoma EBC-1 cell (both are MET persistent activated cell lines due to MET gene amplification, and are Met dependent tumor cell lines, MKN45 cell was purchased from JCRB, Japan, EBC-1 cell was purchased from ATCC, USA) were detected using sulforhodamine B (SRB) staining. […] After incubation with compound for 72 hours, the incubation was terminated, adherent cells were retained and medium was discarded, 10% (w/v) trichloroacetic acid (100 μL pre well) was added, the cells were fixed at 4° C. for 1 hour, then rinsed with distilled water for 5 times, after dried at room temperature, SRB solution (4 mg/mL, dissolved in 1% glacial acetic acid) was added at 100 μL per well, incubated and stained at room temperature for 15 minutes, then rinsed with 1% glacial acetic acid for 5 times to remove any unbound SRB, dried at room temperature, then 10 mM Tris solution was added at 100 μL per well, the optical density (OD) value at 515 nm was measured using VERSMax microplate reader.
Experiments were conducted in duplicates. IC50 value was calculated by fitting the data for a four parameter fit using inhibition curve, the results are shown below in Table 2.

The mark [6] stands for this setting: 50 mg/kg po qd/14, end of administration.

As to `Cn1cc(-c2cnc3cnn(S(=O)(=O)c4cnc5ccccn45)c3c2)cn1` [Compound 19, 1-(imidazo[1,2-a]pyridine-3-sulfonyl)-6-[(1-methyl)-4-pyrazolyl]-1-H-pyrazolo[4,3-b]pyridine], in series [1], the inhibition at 10 µM worked out at 59.3%. Also, in series [2], the IC50 – broadly, the midpoint of a concentration-inhibition curve – stood at 7.8 ± 0.8 nM; the inhibition at 0.1 µM came out at 59.2%; the inhibition at 1 µM worked out at 53.5%; the inhibition at 10 µM worked out at 59.3%. Besides, the “state and survival of mice during the administration period” value in series [3] (50 mg/kg daily for 14 days) is “in good state and were survived”. Moreover, the “antitumor activity (in words)” value in series [3] (50 mg/kg daily, d14) is recorded as “favorable antitumor activity”. Further, in series [3] (setting [6]), the “RTV (mean ± SE)” value is 77.0 ± 5.2; the “TV (mm^3, mean ± SE) d21” value came out at 140 ± 20 mm^3; the “Weight (g) d21” value stood at 24.5 g. Besides, in series [3] (50 mg/kg po qd/14, end of the trial), the “GI (%)” value came out at 102.41%. Also, the “T/C (%)” value in series [3] (50 mg/kg po qd/14, end of the trial (d14)) came out at 7.29%. The inhibition at 0.2 µM in series [4] (read-out: Cell proliferation inhibition rate at 200 nM (%)) worked out at 91.8%. Further, the inhibition at 1 µM in series [4] (read-out: Cell proliferation inhibition rate at 1 μM (%)) is 95.6%.

`CNC(=O)c1ccc(-c2ccc3ncc(S(=O)(=O)n4ncc5ncc(-c6cnn(CCN(C)C)c6)cc54)n3c2)cc1F` [Example 102, 1-{(6-(3-fluoro-4-methylaminocarbonylphenyl)-imidazo[1,2-a]pyridine)-3-sulfonyl}-6-[(2-dimethylaminoethyl)-4-pyrazolyl]-1-H-pyrazolo[4,3-b]pyridine]: the inhibition at 10 µM in series [1] is over 65.5%. Moreover, the inhibition at 0.2 µM in series [5] (MKN-45, read-out: Cell proliferation inhibition rate at 200 nM (%), MKN45, 200 nM) amounted to 63.8%. Also, the inhibition at 1 µM in series [5] (MKN-45, read-out: Cell proliferation inhibition rate at 1 μM (%), MKN45, 1 μM) is 67.9%. Also, in series [2], the inhibition at 0.1 µM was determined as 73.7%, the inhibition at 1 µM was 85.3% and the inhibition at 10 µM stood at 95.4%.
